According to patent US20170137473A1, “FLUOROGEN ACTIVATING AND SHIFTING TAG (FAST)” (PARIS SCIENCES ET LETTRE - QUARTIER LATIN, priority 2014, published 2017):

Tests used:
HeLa cells = assay: LIVE/DEAD viability assay (calceinAM, EthD1) of HeLa cells; assay type: cell-based; details: incubated 5 h at 5, 10 and 20 μM; concentrations used for imaging
Method: Cell viability was tested by using calceinAM and EthD1 (LIVE/DEAD® viability/cytotoxicity assay kit). CalceinAM is a cell-permeant profluorophore cleaved by intracellular esterases releasing the green fluorescent polyanionic calcein in live cells. EthD1 (Ethidium homodimer 1) is a non cell-permeant nucleic acid red fluorescent stain that enters only cells with damaged membranes and undergoes a fluorescence enhancement upon binding to nucleic acids, thereby producing a bright red fluorescence in dead cells. Control experiments with HeLa cells non-incubated with dye (top left, live control) or incubated for 1 h with 1% hydrogen peroxyde (top right, dead control) are shown. Cell fluorescence was evaluated by confocal microscopy.

zebrafish embryos = assay: Fitness of zebrafish embryos incubated with HMBR during development; assay type: in vivo; details: incubation from 50% epiboly to 24 hpf; data not shown
[1] = tested on: wild-type bacteria, yeast and mammalian cells; assay: Fluorescence background of fluorogen in wild-type cells (flow cytometry, confocal); assay type: cell-based
Method: (§1) Flow cytometry analysis was performed on an Accuri C6 (BD Biosciences). Confocal micrographs were acquired on a Zeiss LSM 710 Laser Scanning Microscope equipped with a Plan Apochromat 63×/1.4 NA oil immersion objective. ZEN software was used to collect the data. Images were analyzed with Image J. Spinning-disk confocal micrographs were acquired on a Nikon Eclipse Ti microscope equipped with a 4×/0.15 N.A objective and a coolSnap HQ2/CDDcamera (Princeton Instrument). Metamorph premier 7.6 software (Molecular Devices) was used to collect the data.
(§2) Labeling of Y-FAST with HBR and HMBR in cells was then analyzed by flow cytometry in three different expression systems: yeast, E. coli and mammalian cells (HeLa cells). The fluorescence was compared to wild-type cells or cells expressing wild-type PYP. […] The performance and selectivity of Y-FAST labeling in mammalian cells, yeast and bacteria was furthermore confirmed by confocal microscopy (FIG. 14d and FIGS. 15 c to f and FIG. 16).

wild-type PYP = target: T1, wild-type PYP (Halorhodospira halophila, UniProt P16113, C69G); assay: Fluorogen labeling of cells expressing wild-type PYP; assay type: cell-based
T1 construct: fusion partner differs by host: Aga2p (yeast surface display, pAG14); His-tag-ENLYFQG (E. coli, pET28a); expressed in transfected cells
T1 sequence (P16113 whole entry C69G, the tested form may be a part): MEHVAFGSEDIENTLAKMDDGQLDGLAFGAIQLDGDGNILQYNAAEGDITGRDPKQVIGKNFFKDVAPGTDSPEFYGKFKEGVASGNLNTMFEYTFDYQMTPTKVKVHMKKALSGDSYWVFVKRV
Method: as §1, §2

Y-FAST [2] = target: T2, Y-FAST (Halorhodospira halophila, UniProt P16113, C69G/D97P/F96I/M100R/Q99S/T101G/T95M/Y94W/Y98T); assay: Labeling of Y-FAST in living cells (yeast, E. coli, HeLa) by flow cytometry; assay type: cell-based
T2 construct: expressed in transfected cells; host or cells: HeLa cells, transiently transfected (pAG96, pIRES vector)
T2 sequence (P16113 whole entry C69G/Y94W/T95M/F96I/D97P/Y98T/Q99S/M100R/T101G): as the sequence (P16113 whole entry C69G, the tested form may be a part) above, with Y94W, T95M, F96I, D97P, Y98T, Q99S, M100R, T101G counted along it
Method: as §1, §2

Y-FAST [3] = target: T2, Y-FAST; assay type: cell-based
Method: FIG. 21 is a set of graphs and images showing that Y-FAST fluorescence can be switched on and off by addition and withdrawal of the fluorogenic ligand. (a,b) HeLa cells expressing mCherry-Y-FAST were grown in a microfluidic channel and repeatedly incubated with HMBR-containing culture medium for 20 s and HMBR-free culture medium for 40 s. A multifunctional fluidic controller enabled several cycles of labeling/unlabeling. […] (a) Confocal timelapse showing two cycles of labeling/unlabeling (Ex/Em 488/493-575 nm). (b) Temporal evolution of the cell fluorescence upon addition (+) and removal (−) of HMBR. (c) Confocal micrographs of live HeLa cells expressing Dronpa-NLS (nucleus) and lyn11-Y-FAST (membrane) showing sequential imaging of nuclear Dronpa and membrane-anchored Y-FAST thanks to sequential on/off labeling of Y-FAST intercalated with on/off photoswitching of Dronpa (Ex/Em 488/493-797 nm). […] Scale bars 10 μm.
FIG. 22 is a set of graphs and images showing that Y-FAST enables the control of the density of fluorescent labeling independently of the expression level. […] Data represents mean±SD (n=15).
A rapid prototyping technique has been used for the device fabrication. A digital cutting machine (Graphtec, CE6000) was used to produce a 0.5 mm wide microfluidic channel in a 0.5 mm thick silicone layer, which was supported by a 50 μm thick plastic film. After removing the plastic film and oxygen plasma treatment, the silicone layer was bonded to a 5 mm thick layer of polydimethylsiloxane (PDMS) which was prepared by casting a mixture of A and B components of RTV 615 (GE, France) at a 10:1 w/w ratio on a flat silicon wafer and curing it at 80° C. for 2 h. Then, inlet and outlet holes were punched with a metal tube for connections. Afterward, the silicone-PDMS complex was bonded to a 160 μm thick cover slide after oxygen plasma treatment. Finally, the whole device was put in a 80° C. oven for 10 min. Before cell seeding, the device was sterilized under UV exposure for more than 30 min. […]

Q: What does the source list for `Cc1cc(/C=C2\SC(=S)NC2=O)ccc1O` [HMBR, (Z)-5-(4-hydroxy-3-methylbenzylidene)-2-thioxo-1,3-thiazolidin-4-one]?
A: toxicity for HeLa cells (HeLa cells): non-toxic; toxicity for zebrafish embryos (mortality, development) (zebrafish embryos): did not induce any mortality or perturbation in the development; fluorescence background in wild-type cells [1]: no or negligible fluorescence background; binding to wild-type PYP (wild-type PYP): do not bind; fluorescent labeling of Y-FAST in living cells, comparison (Y-FAST [2]): outperforms HBR; time of labeling in cells (Y-FAST [3]; 5 μM HMBR, microfluidic channel): within about ten seconds; concentration sufficient for full labeling in cells (Y-FAST [3]; HeLa cells expressing mCherry-Y-FAST): 1 µM; cell permeability (Y-FAST [3]; inferred from labeling time in HeLa cells): good cell permeability
